Consider three compounds from patent US11707557B2, “Compositions and devices incorporating water-insoluble therapeutic agents and methods of the use thereof” (COOK MEDICAL TECHNOLOGIES LLC, priority 2014, dated 2023).

Converted amounts (≈) assume the structure as drawn. Some results are limits rather than exact numbers.

A short description of data set [1]: physchem. The conditions noted are these: for solubility: thermodynamic from solid. It counts as physicochemical. The procedure: Method: Solutions of finasteride and either EGCG or tannic acid at various weight percentages in ethanol were dried down under nitrogen. Water was added and the dried material suspended/dissolved. […] The pH of tannic acid solutions was brought up to 7 by the addition of NAOH.

The nature of data set [2]: Release of finasteride from PVA foam embolization particles and Embospheres. It is filed as physicochemical. As for the experimental part:
Method: PVA foam embolization particles (Cook. Medical Bloomington Ind.) size 180-300 um. Vial of 220 mg split into two. 150 mg of EGCG with 10 mg of finasteride or 250 mg tannic acid with 1 mg of finasteride were dried as a common film from ethanol and solubilised in 1 ml of water and added to the 100 mg of PVA particles. Solutions were mixed for 30 minutes. At this time it was observed that all the EGCG or tannic acid color (pink or brown respectively) had disappeared from the solution and gone into the PVA which was now heavily colored. The solution was discarded and the PVA freeze dried. 10 mg of the EGCG formulation or 5 mg of the tannic acid formulation was added to 2 ml of PBS (pH 7.4) and the release of finasteride was measured over 2 weeks.
Embospheres: Syringe contents ((Embospheres 500-700 um Merit Medical S. Jordan Utah) were split into two and incubated in water solutions of finasteride (1 mg/ml in 35 mg of EGCG or tannic acid made up from dried films as above) for 30 minutes with shaking. At this time it was observed that all the EGCG or tannic acid color (pink or brown respectively) had disappeared from the solution and gone into the Embospheres which were no heavily colored. The solution was discarded. 20% of the resulting particles (still wet) were then placed in microcentrifuge tubes containing 2 ml of PBS and drug release was measured.

Data set [3] is described as follows: Release from PLGA microspheres +/- EGCG or tannic acid. It is filed as physicochemical. As to conditions: for drug released: first 20 days. As for the experimental part:
Method: The method involved pipetting a solution of the polymer PLGA (usually 20% w/v) and drug (usually 5% w/w to polymer) and EGCG (e.g. 20% w/w/ to polymer) in dichlomethane (DCM) (5 ml) into 100 ml of 2.5% PVA solution in water stirring at 450 rpm. The suspension was left stirring for 2 hours and the microspheres washed 4 times in distilled water. The microspheres were then dried under vacuum for 2 days. Drug encapsulation was measured by dissolving a known weight of microspheres in 1 ml of dichloromethane followed by immediate dilution to 10 ml in 60:40 acetonitrile/water. The amount of drug or EGCG in the top and bottom phase of this solution was measured using HPLC methods (mobile phase 58:37:5 Acetonitrile:water:methanol. 1 ml per min flow on a c18 column with detection at 232 nm)
Tannic acid: An alternative method was used, termed a water-in oil-in water emulsion. […] This forms a primary emulsion of water droplets in the PLGA solution stabilized by Span. When this emulsion was pipetted into the PVA solution the microspheres formed well. […] The microspheres were a light brown in color indicative of tannic acid encapsulation.
Methods: In these studies, 10 mg of microspheres were suspended in 2 ml of phosphate buffered saline (pH 7.4 10 mM phosphate) in microcentrifuge tubes and tumbled at 8 rpm at 37° C. The tubes were then centrifuged at 12000×g and the supernatants collected for drug analysis by HPLC. 2 ml of fresh PBS was then placed on top of the microspheres which were returned to the 37° C. oven for continued incubation with tumbling.
At the end of the study the residual mass of polymer and drug was dissolved in DCM and drug extracted into 60:40 acetonitrile:water to measure residual drug. The amounts of residual drug were 89% for plga alone (at 31 days), 16% for EGCG and 8% for tannic acid (both at 51 days) as expressed as a % of the original loading.

For data set [4] the following is noted: 24 h.
Method: (§1) PBS (EGCG) or water (tannic acid) was added and the final solution filtered through a 0.22 micron filter to remove any particulates. The solutions were analyzed for drug concentration using HPLC.
(§2) PBS (EGCG) or water (tannic acid) was added and the final solution filtered through a 0.22 micron filter to remove particulates. The solution was then analyzed for drug concentration using absorbance spectroscopy at 450 nm.
(§3) PBS (EGCG) or water (tannic acid) was added and the final solution was filtered through a 0.22 micron filter to remove any particulates and the solution was analyzed for drug concentration using HPLC.
(§4) PBS (EGCG) or water (tannic acid) was added and the final solution filtered through a 0.22 micron filter to remove any particulates and the solution was analyzed for drug concentration using HPLC.
(§5) PBS (EGCG) or water (Tannic acid) was added and the final solution was filtered through a 0.22 um filter to remove any particulates and the solution was analyzed for drug concentration using HPLC.
(§6) Method: drug and EGCG or tannic acid were dried down from acetonitrile (or methanol for tannic acid) solutions at various drug to EGCG or tannic acid ratios. PBS (EGCG) or water (Tannic acid pH adjusted to 7) was added and the final solution was filtered through a 0.22 um filter to remove any particulates and the solution was analyzed for drug concentration using HPLC methods.
A short description of data set [5]: physchem.
Method: as §1, §2, §3, §4, §5, §6
Data set [6] in a line: Drug concentrations obtained using EGCG at 50 mg per ml (microscopic check for particulates). It is filed as physicochemical. As for the experimental part:
EGCG at 50 mg/ml and drug at approximately 250 micrograms per ml were dissolved in the listed solvent and dried down in a test tube under nitrogen. 1 ml of water was added, followed by vortexing. The solutions were examined for particulate matter under a microscope. If no particulates were present, the process was repeated with a higher drug amount. All the tested drugs remained in solution at the listed concentrations except for nystatin and hesperidin.

The next data set has as its system Caco2 cells. In words: Uptake and transfer of amphoterecin B into Caco2 cells. As to conditions: 3 hours, versus ambisome. It counts as in vitro ADME, human. The procedure:
Caco2 cells were seeded onto 0.3 um transwell membranes and treated as in Example 9. A solution of amphoterecin B (250 ug per ml) in EGCG (25 mg per ml), tannic acid (25 mg/ml) in Hanks buffer pH 7.4. or ambisome was added to the top well for 3 hours. The bottom reservoir was collected and treated as in Example 8.

Data set [7] in a line: Drug release from injectable PG:gallate pastes (60:40) into PBS. It is filed as physicochemical. The conditions noted are these: 60:40 PG:EGCG or PG:tannic acid, 2% w/w drug, PBS pH 7.4, 37° C. The procedure:
Methods: 60:40% w/w PG:EGCG or PG:tannic acid was used in these studies. 588 mg of propylene glycol was weighed into a 20 mL glass vials and 392 of EGCG or tannic acid was added followed by vortexing to distribute and dissolve the gallates. The vials were warmed to 60° C. and vortexed until all the contents were in solution. At this time 20 mg of drug was added (2% w/w) and vortexed until in solution. The following drugs were used: paclitaxel, docetaxel, retinoic acid, amphotericin B, and curcumin. 100 mg of each paste was weighed into the base of a 15 mL glass test tube and 10 mL of phosphate buffered saline was added at pH 7.4 and the tubes were incubated at 37° C. for certain times. All 10 mL of the PBS release media was removed and 1 mL analyzed by HPLC for drug content. 10 mL of fresh PBS was then added to all tubes

Data set [8] is described as follows: Liquid pharmaceutical excipients in gallate based pastes (solubility, viscosity score, pellet in water). It is filed as physicochemical. An excerpt: Various additional water/soluble/miscible liquids were explored (in addition to propylene glycol and polyethylene glycol) as excipients in gallate based pastes.
A viscosity score was established as follows: 1) Fluid—22 gauge needle; 2) Semi Viscous—18 gauge needle; 3) Viscous—16 gauge needle; 4) Waxy Pellet in water.

Where [9] appears, read: aqueous with cosolvent or surfactant or cyclodextrin, thermodynamic from solid, drug concentration solubilised at maximum EGCG concentration.

Usually solubility stands for how much of the substance goes into solution per volume. A high value points to much dissolved substance. `CC(C)(C)NC(=O)[C@H]1CC[C@H]2[C@@H]3CC[C@H]4NC(=O)C=C[C@]4(C)[C@H]3CC[C@]12C` [finasteride]: the stability of solutions result in the data set “physchem [1]” (24 h) is listed as “stable over 24 hours”. In addition, the solubility is > 10 mg/mL in “physchem [1]” (aqueous with cosolvent or surfactant or cyclodextrin); 8 to 10 mg/mL (≈ 21.5 to 26.8 mM) in “physchem [1]” (pH 7, aqueous with cosolvent or surfactant or cyclodextrin); 0.075 mg/mL (≈ 0.201 mM) in “physchem [1]” (water); ~11 mg/mL (≈ 29.5 mM) in the data set “physchem [5]” (setting [9]); ~10 mg/mL (≈ 26.8 mM) in the data set “physchem [5]” (pH 7, aqueous with cosolvent or surfactant or cyclodextrin, thermodynamic from solid, drug concentration solubilised at maximum tannic acid concentration). The same compound gave a finasteride release in [2] (PVA incubated with tannic acid/finasteride solution, PBS, in 3 days) of 100%. For the same compound, the “period of finasteride release” value in data set [2] (the other embolic particles (PVA with EGCG, Embospheres with EGCG or tannic acid)) was “over a two week period”. Also, the drug released result in [3] (PLGA microspheres with EGCG) and in [3] (PLGA microspheres with tannic acid) was “approx 80%” throughout. Also, in [3] (PLGA microspheres without EGCG or tannic acid, after 32 days), the encapsulated drug released worked out at 7%. The “residual drug as % of the original loading” value in [3] (PLGA with EGCG, at 51 days) turned out to be 16%; in data set [3] (PLGA with tannic acid, at 51 days), 8%; in [3] (plga alone, at 31 days) it was 89%. Also, the “stability of EGCG solutions of the drug” value in data set [4] is listed as “stable for 24 hours”. Also, the “stability of tannic acid solutions of the drug” value in [4] was “stable for 24 hours”.

For `C[C@@H]1[C@H](O)[C@@H](C)/C=C/C=C/C=C/C=C/C=C/C=C/C=C/[C@H](O[C@@H]2O[C@H](C)[C@@H](O)[C@H](N)[C@@H]2O)C[C@@H]2O[C@](O)(C[C@@H](O)C[C@@H](O)[C@H](O)CC[C@@H](O)C[C@@H](O)CC(=O)O[C@H]1C)C[C@H](O)[C@H]2C(=O)O` [amphotericin, amphotericin B], the Visual appearance result in [6] was “clear”. In addition, the “Drug Concentration” value in data set [6] (1 ml of water) is 125 microgram/ml. The Particulates present result in [6] (under a microscope) is “no”. Besides, the “drug uptake and transport through the cells” value in the data set with Caco2 cells (250 ug per ml in EGCG 25 mg per ml) and in the data set on Caco2 cells (250 ug per ml in tannic acid 25 mg/ml) was “much higher levels” in each case. Further, the “drug release from PG:gallate paste” value in data set [7] is reported as “relatively controlled release of the drug over 24 hours”. For the same compound, the “stability of EGCG solutions of the drug” value in [4] is on record as “stable for 24 hours”. Besides, the “stability of tannic acid solutions of the drug” value in data set [4] is given as “stable for 24 hours”. For the same compound, the solubility in the data set “physchem [5]” (setting [9]) was ~1.8 mg/mL (≈ 1.95 mM); in “physchem [5]” (aqueous with cosolvent or surfactant or cyclodextrin, thermodynamic from solid, drug concentration solubilised at maximum tannic acid concentration), ~5.7 mg/mL (≈ 6.17 mM); in “physchem [5]” (water, free solubility in water), 0.001 to 0.01 mg/mL (≈ 0.00108 to 0.0108 mM).

Regarding Tween 80, in [8], the “Solubility of EGCG in excipient” value was 15% and the “Solubility of tannic acid in excipient” value was determined as 15%.
